Drawing on US7157487B2, “Vla-4 inhibitors” (Daiichi Pharmaceutical Co., Ltd., priority 2000, dated 2007), this text covers Ki for eleven compounds.

Molecules are shown by their SMILES.

T1 sequence (P13612 34-1032): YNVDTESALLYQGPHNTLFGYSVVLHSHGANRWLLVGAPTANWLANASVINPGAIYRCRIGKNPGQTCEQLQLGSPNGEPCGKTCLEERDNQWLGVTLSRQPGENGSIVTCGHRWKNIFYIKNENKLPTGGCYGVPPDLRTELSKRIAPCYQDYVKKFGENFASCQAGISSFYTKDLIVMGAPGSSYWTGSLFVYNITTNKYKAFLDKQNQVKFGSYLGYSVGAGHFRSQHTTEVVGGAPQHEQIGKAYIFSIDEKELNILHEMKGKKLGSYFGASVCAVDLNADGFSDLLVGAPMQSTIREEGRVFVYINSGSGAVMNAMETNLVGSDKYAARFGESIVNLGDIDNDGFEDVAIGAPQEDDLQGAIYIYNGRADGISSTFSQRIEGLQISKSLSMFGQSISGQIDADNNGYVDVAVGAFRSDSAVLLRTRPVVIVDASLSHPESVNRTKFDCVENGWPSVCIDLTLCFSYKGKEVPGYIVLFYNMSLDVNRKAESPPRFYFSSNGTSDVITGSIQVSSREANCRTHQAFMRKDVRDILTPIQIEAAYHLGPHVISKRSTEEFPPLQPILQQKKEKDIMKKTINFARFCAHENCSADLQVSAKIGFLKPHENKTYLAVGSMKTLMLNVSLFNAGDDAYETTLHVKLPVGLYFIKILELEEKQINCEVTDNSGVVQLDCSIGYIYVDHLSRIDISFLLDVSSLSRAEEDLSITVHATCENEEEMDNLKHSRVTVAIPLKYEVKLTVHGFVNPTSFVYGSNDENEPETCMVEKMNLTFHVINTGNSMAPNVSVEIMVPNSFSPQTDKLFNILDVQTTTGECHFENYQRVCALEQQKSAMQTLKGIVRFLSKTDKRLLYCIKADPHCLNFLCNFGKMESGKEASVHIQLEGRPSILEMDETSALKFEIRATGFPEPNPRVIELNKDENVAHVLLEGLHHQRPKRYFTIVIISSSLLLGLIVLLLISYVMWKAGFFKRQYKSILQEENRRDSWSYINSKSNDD
T1 sequence (P05556 21-798): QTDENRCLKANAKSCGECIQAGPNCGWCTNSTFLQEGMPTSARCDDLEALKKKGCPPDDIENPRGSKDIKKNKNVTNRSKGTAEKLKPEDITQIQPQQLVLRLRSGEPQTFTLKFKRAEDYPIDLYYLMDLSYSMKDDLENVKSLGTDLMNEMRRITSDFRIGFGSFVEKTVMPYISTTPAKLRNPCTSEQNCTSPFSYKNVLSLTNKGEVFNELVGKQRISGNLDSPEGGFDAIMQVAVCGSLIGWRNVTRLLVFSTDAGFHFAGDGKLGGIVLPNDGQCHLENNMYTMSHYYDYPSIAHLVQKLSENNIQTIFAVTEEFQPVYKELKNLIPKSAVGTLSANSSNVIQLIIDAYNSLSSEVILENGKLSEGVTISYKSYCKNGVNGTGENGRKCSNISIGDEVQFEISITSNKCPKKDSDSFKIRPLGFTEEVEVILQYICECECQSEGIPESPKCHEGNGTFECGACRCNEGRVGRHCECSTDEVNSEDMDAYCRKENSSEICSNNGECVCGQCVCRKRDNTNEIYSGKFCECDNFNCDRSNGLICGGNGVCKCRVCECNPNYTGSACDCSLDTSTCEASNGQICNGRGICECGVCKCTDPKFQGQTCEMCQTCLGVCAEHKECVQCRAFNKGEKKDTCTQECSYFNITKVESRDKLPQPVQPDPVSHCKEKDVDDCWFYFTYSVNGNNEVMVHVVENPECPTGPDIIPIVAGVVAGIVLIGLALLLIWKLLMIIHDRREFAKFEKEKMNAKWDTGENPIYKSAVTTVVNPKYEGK

The assay addresses T1, integrins haα4 and β1 (VLA-4) expressed on CHO cells (Homo sapiens, UniProt P05556+P13612).
T1 construct: expressed in transfected cells; host or cells: CHO cells
The assay can be described thus: In vitro Evaluation Test (1): binding of Eu3+-hVCAM-1 D1D7-IgG to CHO cells expressing integrins α4 and β1. The following applies: inhibition of Eu3+-hVCAM-1 D1D7-IgG binding to CHO cells expressing α4β1; Ki calculated from IC50. As for the experimental part: CHO cells forcedly expressed by the transduction of integrins haα4 and β1 were seeded in a Coster 3599 plate (3×10^4 cells/100 μl/well) and they were cultured for 2 days. After the medium was washed with buffer A* twice, 50 μl/well of Eu^3+-hVCAM-1 D1D7-IgG diluted to […] with an assay buffer ** was added. To the resulting well was added 50 μl/well of a test compound diluted with 2% DMS0-assay buffer (in the presence or absence of 6% human serum albumin) (to a well subjected to Scatchard analysis was added a solution diluted in another manner). After stirring for 5 minutes on a plate mixer, the plate was allowed to stand at room temperature for 1 hour. Then, the plate was washed four times with the buffer A and added with 100 μl/well of an enhancement reagent (DELFIA). The plate was shaken for 5 minutes on a plate mixer, followed by measurement of fluorescence intensity by a time-resolved fluorometer (DELFIA Wallac). From the binding ratio available by the following calculation formula: ((FT−FNS)−(FI−FNS))/(FT−FNS)×100, the IC50 (concentration inhibiting 50% of binding of CHO cells with hVCAM-1 D1D7-IgG) of the test compound was determined. In the above formula, FT means the fluorescence intensity of the well free of the test compound, FNS means the fluorescence intensity of the well free of the test compound and anti-hα4 antibody (SG/73), and FI means the fluorescence intensity of the well containing the test compound. The Kd indicating the binding strength and Bmax (maximum binding) were estimated within a range of 0.06 to 20 nM in accordance with the Scatchard analysis method.
The value Ki was calculated based on:
[formula] ((L) means a ligand concentration). (* buffer A: 25 mM HEPES (pH 7.5), 150 mM NaCl, 1 mM Ca^2+, 1 MM Mg^2+, 4 mM Mn^2+; ** assay buffer: 25 mM HEPES (pH 7.5), 150 mM NaCl, 1 mM Ca^2+, 1 mM Mg^2+, 4 mM Mn^2+, 0.1% BSA, 20 μM DTPA, with/without 6% ALBUMIN, HUMAN SERUM (C/N A-1653, SIGMA)) In vitro Evaluation Test (2)
With `O=C(Cc1ccc(Nc2nc3cccc(F)c3o2)c(Cl)c1)N1C[C@@H](F)C[C@H]1CO[C@H]1CC[C@H](C(=O)O)CC1` [Example 53, trans-4-(1-(3-Chloro-4-(2-(7-fluorobenzoxazolyl))aminophenylacetyl)-(4S)-fluoro-(2S)-pyrrolidinylmethoxy)cyclohexanecarboxylic acid], the inhibition constant (Ki) (as a rule, a measure of affinity in units of concentration, obtained from inhibition or displacement) is 32 nM.

As for `O=C(Cc1ccc(Nc2nc3cc(F)ccc3o2)c(Cl)c1)N1C[C@@H](F)C[C@H]1CO[C@H]1CC[C@H](C(=O)O)CC1` [Example 54, trans-4-(1-(3-Chloro-4-(2-(5-fluorobenzoxazolyl))aminophenylacetyl)-(4S)-fluoro-(2S)-pyrrolidinylmethoxy)cyclohexanecarboxylic acid], the Ki was 5.6 nM.

Take `Cc1cc(CC(=O)N2C[C@@H](F)C[C@H]2CO[C@H]2CC[C@H](C(=O)O)CC2)ccc1Nc1nc2ccccc2o1` [Example 50, trans-4-(1-(4-(2-Benzoxazolyl)amino-3-methylphenylacetyl)-(4S)-fluoro-(2S)-pyrrolidinylmethoxy)cyclohexanecarboxylic acid]: the Ki is 13 nM.

Take `Cc1ccccc1Nc1nc2ccc(CC(=O)N3C[C@@H](F)C[C@H]3COc3ccc(C(=O)O)cc3)cc2o1` [Example 2, 4-((4S)-Fluoro-1-(2-(2-methylphenylamino)-6-benzoxazolylacetyl)-(2S)-pyrrolidinylmethoxy)benzoic acid]: the Ki is 17 nM.

On to `COC[C@@H]1C[C@@H](O[C@H]2CC[C@H](C(=O)O)CC2)CN1C(=O)Cc1ccc2nc(Nc3cc(F)ccc3C)oc2c1F` [Example 156, trans-4-(1-((2-(5-Fluoro-2-methylphenylamino)-7-fluoro-6-benzoxazolyl)acetyl)-(2S)-methoxymethyl-(4R)-pyrrolidinyloxy)cyclohexanecarboxylic acid], for which the Ki is 43 nM.

In the case of `COc1cc(CC(=O)N2C[C@@H](F)C[C@H]2COc2ccc(C(=O)O)cc2)cc2oc(Nc3ccccc3C)nc12` [Example 3, 4-((4S)-Fluoro-1-(4-methoxy-2-(2-methylphenylamino)-6-benzoxazolylacetyl)-(2S)-pyrrolidinylmethoxy)benzoic acid], the Ki was 40 nM.

`COC[C@@H]1CC[C@@H](CO[C@H]2CC[C@H](C(=O)O)CC2)N1C(=O)Cc1ccc2nc(Nc3cc(F)ccc3C)oc2c1F` [Example 167, trans-4-(1-((2-(5-Fluoro-2-methylphenylamino)-7-fluoro-6-benzoxazolyl)acetyl)-(5S)-methoxymethyl-(2S)-pyrrolidinylmethoxy)cyclohexanecarboxylic acid]: the Ki is 0.87 nM.

On to `Cc1ccc(F)cc1Nc1nc2ccc(CC(=O)N3C[C@@H](C)C[C@H]3CO[C@H]3CC[C@H](C(=O)O)CC3)c(F)c2o1` [Example 134], for which the Ki was 3.1 nM.

Consider `Cc1ccccc1Nc1nc2ccc(CC(=O)N3C[C@@H](N(C)C)C[C@H]3COc3ccc(C(=O)O)cc3)cc2o1` [Example 7, 4-((4S)-Dimethylamino-1-(2-(2-methylphenylamino)-6-benzoxazolylacetyl)-(2S)-pyrrolidinylmethoxy)benzoic acid], for which the inhibition constant (Ki) is 7.1 nM.

Turning to `Cn1cc(C(=O)Nc2cc(F)c(CC(=O)N3C[C@@H](F)C[C@H]3C(=O)N[C@H]3CC[C@H](C(=O)O)CC3)cc2Cl)c2ccccc21` [Example 111, trans-4-((1-(5-Chloro-2-fluoro-4-((1-methyl-3-indolylcarbonyl)amino)phenylacetyl)-(4S)-fluoro-(2S)-pyrrolidinyl)carbonylamino)cyclohexanecarboxylic acid], the Ki was 2.6 nM.

Take `Cc1ccccc1Nc1nc2ccc(CC(=O)N3C[C@@H](F)C[C@H]3C(=O)N3CCC(CC(=O)O)CC3)cc2o1` [Example 31, 1-((4S)-Fluoro-1-(2-(2-methylphenylamino)-6-benzoxazolylacetyl)-(2S)-pyrrolidinylcarbonyl)-4-piperidinylacetic acid]: the Ki was 16 nM.
